For orientation: AUC means concentration integrated over time. Low values mean less exposure, high ones more exposure. As a reminder, the Vd is the apparent volume that relates the amount in the body to the concentration in plasma or blood. A lower Vd goes with confinement near the circulation. A word on the clearance: it is a measure of how efficiently the substance is removed, as volume per time. A word on the half-life: it is the time needed for the level to fall by half in the phase considered.

Counter-ions that a name gives are not always drawn. Like-named read-outs stand apart in the source and are kept apart here.

The subject of data set [1] is single ventricular myocytes. Put plainly: Cardiomyocyte contractility, single dose, with and without ICI 118,551. Type of data set: cell-based.
Procedure: In these studies, the contraction amplitude indexed by electrical pacing induced shortening of cell length was measured in single ventricular myocytes before and after exposure to a single dose of the test compounds.
A further data set addresses human β2-AR (Homo sapiens, UniProt P07550).
The conditions of data set [2]: IV 5 mg/kg; for Average plasma concentration: average of rats.
The subject of data set [3] is freshly isolated adult rat cardiomyocytes. The experiment in a line: Cardiomyocyte contractility, dose-response. As to conditions: for maximum contractile response: 10^−8 to 10^−5 M; for EC50: contractility dose-response. Format: cell-based. As to the method:
All studies were performed within 8 hours of cell isolation.
The cells were placed on the stage of an inverted microscope (Zeiss model IM-35, Zeiss, Thornwood, N.Y.), perfused with the HEPES-buffered solution at a flow rate of 1.8 mL/minutes, and electrically stimulated at 0.5 Hz at 23° C. Cell length was monitored by an optical edge-tracking method using a photodiode array (Model 1024 SAQ, Reticon, Boston, Mass.) with a 3 ms time resolution. Cell contraction was measured by the percent shortening of cell length following electrical stimulation.

The next data set can be described thus: in vivo. To be noted: male, Sprague-Dawley, rat, plasma, iv, 5 mg/kg.
Setting [4] is: Average plasma concentration, average of rats, IV 5 mg/kg.
Setting [5] is: Individual plasma concentration, individual rat, IV 5 mg/kg.

Sequence of human β2-AR (P07550 whole entry): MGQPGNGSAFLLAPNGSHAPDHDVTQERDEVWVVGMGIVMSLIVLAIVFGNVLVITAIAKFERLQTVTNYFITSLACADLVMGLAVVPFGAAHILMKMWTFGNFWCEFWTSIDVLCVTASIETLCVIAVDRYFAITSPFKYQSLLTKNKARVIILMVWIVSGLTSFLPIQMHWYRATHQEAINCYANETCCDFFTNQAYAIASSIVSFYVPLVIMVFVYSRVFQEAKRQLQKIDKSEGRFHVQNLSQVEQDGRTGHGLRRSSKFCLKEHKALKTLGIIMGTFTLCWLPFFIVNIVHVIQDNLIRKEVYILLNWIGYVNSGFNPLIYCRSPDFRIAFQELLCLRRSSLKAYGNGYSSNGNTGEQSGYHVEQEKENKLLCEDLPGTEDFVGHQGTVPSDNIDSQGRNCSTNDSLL

Turning to `C[C@@H](Cc1cccc2ccccc12)NC[C@H](O)c1cc(O)cc(O)c1.O=C(O)/C=C/C(=O)O` [(R,S)-5, (R,S)-(−)-5-{1-hydroxy-2-[1-methyl-2-(1-naphthyl)ethylamino]ethyl}-1,3-benzenediol fumarate], the “concentration eliciting maximum effect” value in data set [1] is 0.1 µM. Further, the “Ki β1/Ki β2” value on human β2-AR came to 46. Moreover, the “systemic exposure (AUC) and clearance compared to (R,R)-fenoterol” value in data set [2] (rat) was “significantly higher systemic exposure (AUC) and longer clearance”.
For the compound `C[C@H](Cc1ccc(O)cc1)NC[C@H](O)c1cc(O)cc(O)c1` [(R,R)-1, (R,R)-(−)-Fenoterol], in data set [3], the maximum contractile response amounted to 306±11.8 % resting cell length. Besides, the EC50 in data set [3] was −7.1±0.2 log [M]. The Average plasma concentration was found to be 1.34 µg/mL in data set [2] (5 min); 0.36 µg/mL in data set [2] (15 min); 0.34 µg/mL in data set [2] (30 min); 0.05 µg/mL in data set [2] (60 min); 0.02 µg/mL in data set [2] (120 min); 0.01 µg/mL in data set [2] (240 min). Moreover, the Average plasma concentration stood at 0.005 µg/mL in data set [2] (300 min) and 0.06 µg/mL in data set [2] (360 min). In data set [2] (rat, two-compartment open model), this compound gave an AUC of 29.6861 µg·min/mL.
On to `C[C@H](Cc1cccc2ccccc12)NC[C@@H](O)c1cc(O)cc(O)c1.O=C(O)/C=C/C(=O)O` (racemic) [(S,R)-5, (S,R)-(+)-5-{1-hydroxy-2-[1-methyl-2-(1-naphthyl)ethylamino]ethyl}-1,3-benzenediol fumarate], for which, on human β2-AR, the “Ki β1/Ki β2” value is 19.
As to `C[C@H](Cc1cccc2ccccc12)NC[C@H](O)c1cc(O)cc(O)c1.O=C(O)/C=C/C(=O)O` [(R,R)-5, (R,R)-(−)-5-{1-hydroxy-2-[1-methyl-2-(1-naphthyl)ethylamino]ethyl}-1,3-benzenediol fumarate], in data set [1], the “concentration eliciting maximum effect” value came to 0.1 µM. Besides, at human β2-AR, the “Ki β1/Ki β2” value is 14.
As to `C[C@@H](Cc1ccc(O)cc1)NC[C@@H](O)c1cc(O)cc(O)c1` [(S,S)-1, (S,S)-(+)-Fenoterol], in data set [3], the inotropic effect result is given as “only a minor positive inotropic effect”. The contractile response result in data set [1] (single dose, ICI 118,551 10^−7 mol/L) was “no observed pharmacological effect”.
Take `CC(Cc1ccc(O)cc1)NCC(O)c1ccc(O)c(O)c1` (racemic) [(±)-fenoterol, 5-[1-hydroxy-2[[2-(4-hydroxyphenyl)-1-methylethyl]-amino]ethyl]1,2-benzenediol, reference compound]: in data set [3], the maximum contractile response was found to be 265±11.6 % resting cell length. Further, the EC50 in data set [3] (Rattus norvegicus, Cardiomyocyte, read-out: EC50 (converted)) was 0.1 µM.
With `COc1ccc(C[C@@H](C)NC[C@H](O)c2cc(O)cc(O)c2)cc1` [(R,R)-2, (R,R)-(−)-1-p-Methoxyphenyl-2-(β-3′,5′-dihydroxy-phenyl-β-oxy)ethylamino-propane Fumarate], in data set [2] (rat), the “systemic exposure (AUC) and clearance compared to (R,R)-fenoterol” value was “significantly higher systemic exposure (AUC) and longer clearance”. In “in vivo”, this compound showed an AUC of 1600 ng·h/mL, a Vd of 2.19 L, a clearance of 15.4 mL/min and a half-life of 13.2 min. In the data set “in vivo” (setting [4]), this compound registered a concentration at 5 min of 2120 ng/mL, a concentration at 15 min of 580 ng/mL, a concentration at 30 min of 410 ng/mL and a concentration at 60 min of 260 ng/mL. In “in vivo” (setting [4]), this compound showed a concentration at 120 min of 170 ng/mL, a concentration at 300 min of 70 ng/mL and a concentration at 360 min of 60 ng/mL. In addition, the concentration at 240 min in the data set “in vivo” (Average plasma concentration, average of rats, IV 5 mg/kg, 240 min) amounted to 120 ng/mL. In “in vivo” (setting [5]), this compound returned a concentration at 5 min of 1940 ng/mL, a concentration at 15 min of 480 ng/mL, a concentration at 30 min of 310 ng/mL and a concentration at 60 min of 230 ng/mL. Further, in “in vivo” (setting [5]), the concentration at 120 min came out at 140 ng/mL, the concentration at 300 min worked out at 60 ng/mL and the concentration at 360 min was 50 ng/mL.
